The source of these data is US20230339900A1, “CASEIN KINASE 1 DELTA MODULATORS” (Janssen Pharmaceutica NV, priority 2020, published 2023).

Assay [1] concerns the target human recombinant GST cleaved CSNK1D (Homo sapiens (Human), UniProt P48730). As to the kind of experiment: Purified enzyme assay (ADP-Glo Kinase Assay). The assay is classed as biochemical. The following applies: 2 nM CSNK1D, peptide substrate 150 μM, ATP 20 μM, 45 minutes room temperature. On the technique in general: ADP-Glo first removes unused ATP, then detects ADP through luciferase.

Assay [2] deals with human CSNK1D tagged with nanoluciferase (Homo sapiens (Human), UniProt P48730). As to the kind of experiment: Whole Cell nBRET CSNK1D Binding Assay. The following applies: living CHO cells stably expressing human CSNK1D-nanoluciferase; NanoBret tracer 130 nM; 2 hours 37° C.; read-out: CSNK1D BRET IC50. Put shortly:
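Live CHO cells stably expressing nanoluciferase-tagged CSNK1D, seeded in serum-free OptiMEM, received compound dose-response plus NanoBRET tracer (130 nM) for 2 h at 37 °C.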
Background: BRET reads energy transfer from a luciferase to a nearby fluorophore.

The structures appear in SMILES notation. Where a name gives a salt, the structure may show the parent alone.

human CSNK1D tagged with nanoluciferase, sequence (P48730 whole entry): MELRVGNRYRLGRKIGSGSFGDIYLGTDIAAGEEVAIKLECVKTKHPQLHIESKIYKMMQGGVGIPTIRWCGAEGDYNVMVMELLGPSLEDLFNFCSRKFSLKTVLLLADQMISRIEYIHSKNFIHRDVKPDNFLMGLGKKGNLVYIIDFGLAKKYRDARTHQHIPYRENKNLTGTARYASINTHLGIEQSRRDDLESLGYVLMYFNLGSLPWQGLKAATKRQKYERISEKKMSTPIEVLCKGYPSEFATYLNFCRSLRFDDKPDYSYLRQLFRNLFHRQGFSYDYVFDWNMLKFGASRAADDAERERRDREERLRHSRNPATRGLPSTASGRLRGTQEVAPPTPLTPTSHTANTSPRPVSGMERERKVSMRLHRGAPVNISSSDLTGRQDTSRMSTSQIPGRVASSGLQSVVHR
human recombinant GST cleaved CSNK1D, sequence (P48730 whole entry): as above

By AC50 is commonly meant the concentration giving half of the maximal activity seen. Usually IC50 stands for the point on the concentration scale where inhibition reaches its midpoint. On to `COc1cnc2c(-c3cn(C)nc3-c3ccc(F)cn3)ccnc2c1` [Example 155, 8-[3-(5-Fluoro-2-pyridyl)-1-methyl-pyrazol-4-yl]-3-methoxy-1,5-naphthyridine], for which the AC50 in assay [1] is 22 nM. Besides, the IC50 in assay [2] came out at 318 nM.
Regarding `Cn1cc(-c2ccnc3[nH]ccc23)c(-c2nccs2)n1` [Example 16, 2-(1-Methyl-4-(1H-pyrrolo[2,3-b]pyridin-4-yl)-1H-pyrazol-3-yl)thiazole], the AC50 in assay [1] worked out at 15 nM. For the same molecule, the half-inhibitory concentration (IC50) in assay [2] was determined as 319 nM.
Taken in the same sequence, the figures for `Fc1ccc(-c2nn(C3CCOC3)cc2-c2ccnc3[nH]ccc23)nc1` (racemic) [Example 74, (R/S)-4-[3-(5-Fluoro-2-pyridyl)-1-tetrahydrofuran-3-yl-pyrazol-4-yl]-1H-pyrrolo[2,3-b]pyridine] were 36 nM and 218 nM.
Taken in the same sequence, the figures for `Cn1cc(-c2ccnc3[nH]ncc23)c(-c2ccc(Cl)cn2)n1` [Example 25, 4-(3-(5-Chloropyridin-2-yl)-1-methyl-1H-pyrazol-4-yl)-1H-pyrazolo[3,4-b]pyridine] were 693 nM and 306 nM.
Consider `Cn1cc(-c2ccnc3[nH]ccc23)c(-c2cccc(F)n2)n1` [Example 29, 4-[3-(6-Fluoro-2-pyridyl)-1-methyl-pyrazol-4-yl]-1H-pyrrolo[2,3-b]pyridine], for which the AC50 in assay [1] was 7 nM. Moreover, the IC50 in assay [2] amounted to 186 nM.
`COc1ccc2c(-c3cn(C)nc3-c3ccc(F)cn3)ccnc2c1` [Example 108, 4-[3-(5-Fluoro-2-pyridyl)-1-methyl-pyrazol-4-yl]-7-methoxy-quinoline]: the AC50 in assay [1] amounted to 13 nM. In assay [2], the IC50 amounted to 373 nM.
With `Cn1cc(-c2nc(C3CC3)nc3[nH]ccc23)c(-c2ccc(F)cn2)n1` [Example 125, 2-Cyclopropyl-4-[3-(5-fluoro-2-pyridyl)-1-methyl-pyrazol-4-yl]-7H-pyrrolo[2,3-d]pyrimidine], the AC50 in assay [1] is 66 nM. The IC50 in assay [2] turned out to be 1910 nM.
For `Cc1nc(-c2cn(C)nc2-c2ccc(F)cn2)c2cc[nH]c2n1` [Example 123, 4-[3-(5-Fluoro-2-pyridyl)-1-methyl-pyrazol-4-yl]-2-methyl-7H-pyrrolo[2,3-d]pyrimidine Trifluoroacetate Salt], in that order: 4 nM and 234 nM.
Regarding `Cn1cc(-c2ccnc3[nH]ccc23)c(-c2cncs2)n1` [Example 14, 5-(1-Methyl-4-(1H-pyrrolo[2,3-b]pyridin-4-yl)-1H-pyrazol-3-yl)thiazole], the AC50 in assay [1] turned out to be 83 nM. Moreover, the IC50 in assay [2] came out at 3130 nM.
For `Cc1c(-c2ccnc3[nH]ccc23)c(-c2ccc(F)cn2)nn1C` [Example 51, 4-(3-(5-Fluoropyridin-2-yl)-1,5-dimethyl-1H-pyrazol-4-yl)-1H-pyrrolo[2,3-b]pyridine], the AC50 in assay [1] amounted to 5 nM. Besides, the IC50 in assay [2] turned out to be 28 nM.
As for `Cn1cc(-c2ccnc3[nH]ncc23)c(-c2ncc(F)cc2F)n1` [Example 38, 4-(3-(3,5-Difluoropyridin-2-yl)-1-methyl-1H-pyrazol-4-yl)-1H-pyrazolo[3,4-b]pyridine], the AC50 in assay [1] was 46 nM. The IC50 in assay [2] is 390 nM.
For `Cn1cc(-c2ccnc3c(F)cccc23)c(-c2ccc(F)cn2)n1` [Example 147, 8-Fluoro-4-[3-(5-fluoro-2-pyridyl)-1-methyl-pyrazol-4-yl]quinoline], in that order: 1100 nM and > 10000 nM.
For the molecule `COc1ncc(-c2nn(C)cc2-c2cc(C)nc3[nH]ncc23)cc1C` [Example 141, 4-[3-(6-Methoxy-5-methyl-3-pyridyl)-1-methyl-pyrazol-4-yl]-6-methyl-1H-pyrazolo[3,4-b]pyridine], in assay [1], the AC50 turned out to be 44 nM. The IC50 in assay [2] worked out at 2020 nM.
For the molecule `Cc1nc(-c2cn(C)nc2-c2ccc(F)cn2)c2cn[nH]c2n1` [Example 124, 4-[3-(5-Fluoro-2-pyridyl)-1-methyl-pyrazol-4-yl]-6-methyl-1H-pyrazolo[3,4-d]pyrimidine], the AC50 in assay [1] stood at 52 nM. For the same molecule, in assay [2], the IC50 was 1940 nM.
